The results in this text go back to patent publication US20240270821A1, “GIP/GLP1/GCG TRI-RECEPTOR AGONISTS AND USES THEREOF” (priority 2023, published 2024).

What all share (format): cell-based
Test [1] concerns the target human GcgR (Homo sapiens, UniProt P47871). The experiment in a line: Functional cAMP activity in the presence of 1% HSA. The conditions noted are these: read-out: cAMP Rel EC50, hGcgR.
Test [2] concerns the target T1, hGIPR (Homo sapiens, UniProt P48546).
T1 sequence (P48546 22-466): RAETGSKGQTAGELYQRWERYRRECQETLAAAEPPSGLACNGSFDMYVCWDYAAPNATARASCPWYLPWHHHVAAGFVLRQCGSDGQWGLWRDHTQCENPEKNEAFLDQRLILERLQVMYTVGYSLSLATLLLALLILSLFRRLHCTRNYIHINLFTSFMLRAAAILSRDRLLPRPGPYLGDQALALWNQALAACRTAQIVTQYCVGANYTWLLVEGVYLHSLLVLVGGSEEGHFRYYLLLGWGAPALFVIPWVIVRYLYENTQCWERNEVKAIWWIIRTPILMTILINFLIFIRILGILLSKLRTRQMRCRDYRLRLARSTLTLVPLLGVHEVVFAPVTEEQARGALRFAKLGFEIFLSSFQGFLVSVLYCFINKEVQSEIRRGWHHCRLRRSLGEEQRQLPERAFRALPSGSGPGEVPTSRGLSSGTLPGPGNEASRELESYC
Kind of test: Functional cAMP activation in the presence of 0.1% casein (no HSA). As to conditions: read-out: Relative cAMP EC50, hGIPR.

The target in test [3] is T2, hGLP-1R (Homo sapiens, UniProt P43220). The test is described as above. The conditions noted are these: read-out: Relative cAMP EC50, hGLP-1R.
T2 sequence (P43220 24-463): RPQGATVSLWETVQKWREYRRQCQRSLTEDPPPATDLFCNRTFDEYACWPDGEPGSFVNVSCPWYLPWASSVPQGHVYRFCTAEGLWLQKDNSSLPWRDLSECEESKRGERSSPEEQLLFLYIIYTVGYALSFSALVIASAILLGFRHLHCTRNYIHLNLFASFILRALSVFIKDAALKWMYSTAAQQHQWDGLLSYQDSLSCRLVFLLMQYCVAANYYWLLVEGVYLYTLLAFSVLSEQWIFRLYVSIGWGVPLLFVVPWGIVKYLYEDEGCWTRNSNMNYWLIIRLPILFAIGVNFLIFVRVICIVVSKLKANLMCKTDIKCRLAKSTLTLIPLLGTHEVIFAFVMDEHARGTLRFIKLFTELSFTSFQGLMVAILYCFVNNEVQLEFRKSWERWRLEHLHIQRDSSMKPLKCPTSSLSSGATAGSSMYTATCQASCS
For test [4], the target named is hGcgR (Homo sapiens, UniProt P47871). The test is described as above. The conditions noted are these: read-out: Relative cAMP EC50, hGcgR.
Sequence of hGcgR (P47871 26-477): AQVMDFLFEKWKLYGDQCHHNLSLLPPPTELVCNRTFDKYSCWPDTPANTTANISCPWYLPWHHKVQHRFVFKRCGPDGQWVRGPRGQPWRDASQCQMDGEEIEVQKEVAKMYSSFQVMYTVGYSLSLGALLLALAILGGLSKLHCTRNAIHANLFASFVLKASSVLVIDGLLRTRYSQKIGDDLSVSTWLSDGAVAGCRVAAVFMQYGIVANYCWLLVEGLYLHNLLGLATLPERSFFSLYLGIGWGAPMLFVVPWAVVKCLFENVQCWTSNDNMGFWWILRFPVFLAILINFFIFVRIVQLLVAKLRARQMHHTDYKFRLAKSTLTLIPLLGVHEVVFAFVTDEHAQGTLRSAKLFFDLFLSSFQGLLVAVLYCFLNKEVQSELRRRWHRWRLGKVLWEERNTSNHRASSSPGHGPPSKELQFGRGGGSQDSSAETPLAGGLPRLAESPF
In test [5] the target is T2, hGLP-1R. The experiment in a line: Functional cAMP activity in the presence of 1% HSA. As to conditions: read-out: cAMP Rel EC50, hGLP-1R.
Test [6] has as its target T1, hGIPR. The experiment in a line: Functional cAMP activity in the presence of 1% HSA. The conditions noted are these: read-out: cAMP Rel EC50, hGIPR.
Where [7] appears, read: in the presence of 0.1% casein (no HSA), geometric mean.

Like-named read-outs stand apart in the source and are kept apart here. Starred links: 1 amine or outer side, 2 acyl side, 3 side chain; linkers in the order of their positions; H or OH if unused. Non-standard residues stand in square brackets, D forms with d. Residues, ends and D or L forms follow the SMILES beside them. Groups on a side chain read outwards from the residue. No end group written: not given here. *: point of attachment. C20 diacid = O=C(O)CCCCCCCCCCCCCCCCCCC(=O)*; C18 diacid = O=C(O)CCCCCCCCCCCCCCCCC(=O)*; αMePhe(2-F) = C[C@](N)(Cc1ccccc1F)C(=O)O; γGlu = O=C(O)[C@H](CCC(=O)[*:2])N[*:1]; αMe4Pal = C[C@](N)(Cc1ccncc1)C(=O)O; αMeY = C[C@](N)(Cc1ccc(O)cc1)C(=O)O; 4Pal = N[C@@H](Cc1ccncc1)C(=O)O; αMeL = CC(C)C[C@](C)(N)C(=O)O; αMeS = C[C@](N)(CO)C(=O)O; Orn = NCCC[C@H](N)C(=O)O; AEEA = NCCOCCOCC(=O)O; Aib = CC(C)(N)C(=O)O
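For Relative cAMP EC50, hGIPR in this document: intracellular cAMP rise after 30 min at 37 °C read by HTRF against a standard curve, scaled between buffer alone (0%) and top control ligand concentration (100%), four-parameter fit.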
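For Relative cAMP EC50, hGLP-1R in this document: intracellular cAMP rise after 30 min at 37 °C read by HTRF, normalized between buffer only (0%) and maximal control ligand (100%), four-parameter variable-slope fit.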
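For Relative cAMP EC50, hGcgR in this document: intracellular cAMP rise after 30 min at 37 °C, read by HTRF against a cAMP standard curve, scaled from buffer only (0%) to maximal control ligand response (100%).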

Sequence of human GcgR (P47871 26-477): as above

One may read the EC50 as the concentration at which the effect is half-maximal. Take “Y[Aib]QGTFTSD[4Pal]SQ[αMeL]LD[Orn]K([dE-γGlu-C18 diacid])AQ[αMe4Pal]QFIE[αMeY]LIA[Aib]GPSSGEPPPSGSEE-NH2 [Example 1106]”: the half-maximal effective concentration (EC50) in test [1] was 1030 nM; in test [2] (setting [7]) it was 0.0312 nM; in test [3] (setting [7]) it was 0.87 nM; in test [4] (setting [7]), 7.71 nM; in test [5], 119 nM; in test [6], 4.23 nM.

With “H-Y[Aib]QGTFTSD[4Pal]SQ[αMeL]LDKK([AEEA-γGlu-γGlu-C18 diacid])AQ[αMe4Pal]AFIEWLIEGGPSSGAPPPSGS-NH2 [Example 871]”, the EC50 in test [1] was 2060 nM; in test [2] (setting [7]), 0.2 nM; in test [3] (setting [7]), 2.92 nM; in test [4] (setting [7]), 12.6 nM; in test [5] it was 230 nM; in test [6], 35.4 nM.

For the compound `CC[C@H](C)[C@H](NC(=O)[C@H](CC(C)C)NC(=O)[C@H](Cc1ccc(O)cc1)NC(=O)[C@@H](CCC(=O)O)NC(=O)[C@@H](NC(=O)[C@H](Cc1ccccc1)NC(=O)[C@H](CCCN)NC(=O)C(C)(C)NC(=O)[C@H](CCC(N)=O)NC(=O)[C@H](C)NC(=O)[C@H](CCCCNC(=O)COCCOCCNC(=O)CC[C@H](NC(=O)CCCCCCCCCCCCCCCCC(=O)O)C(=O)O)NC(=O)[C@H](CCCN)NC(=O)[C@H](CC(=O)O)NC(=O)[C@H](CC(C)C)NC(=O)[C@](C)(CC(C)C)NC(=O)[C@@H](NC(=O)[C@](C)(CO)NC(=O)[C@H](Cc1ccncc1)NC(=O)[C@H](CC(=O)O)NC(=O)[C@H](CO)NC(=O)[C@@H](NC(=O)[C@](C)(Cc1ccccc1F)NC(=O)[C@@H](NC(=O)CNC(=O)[C@H](CCC(N)=O)NC(=O)C(C)(C)NC(=O)[C@@H](N)Cc1ccc(O)cc1)[C@@H](C)O)[C@@H](C)O)[C@@H](C)CC)[C@@H](C)CC)C(=O)N[C@@H](CCC(=O)O)C(=O)NCC(=O)NCC(=O)N1CCC[C@H]1C(=O)N[C@@H](CO)C(=O)N[C@@H](CO)C(=O)NCC(=O)N[C@@H](CCC(=O)O)C(=O)N1CCC[C@H]1C(=O)N1CCC[C@H]1C(=O)N1CCC[C@H]1C(=O)N[C@@H](CCC(=O)O)C(N)=O` [Example 458] (H-Y[Aib]QGT[αMePhe(2-F)]TSD[4Pal][αMeS]I[αMeL]LD[Orn]K([AEEA-γGlu-C18 diacid])AQ[Aib][Orn]FI[dE]YLIEGGPSSGEPPPE-NH2), the EC50 is 319 nM in test [1]; 0.0448 nM in test [2]; 0.347 nM in test [3]; 5.29 nM in test [4]; 22.7 nM in test [5]; 8.07 nM in test [6].

For the compound `CC[C@H](C)[C@H](NC(=O)[C@H](Cc1ccccc1)NC(=O)[C@H](C)NC(=O)[C@H](CCCNC(=N)N)NC(=O)[C@H](CCC(N)=O)NC(=O)[C@H](C)NC(=O)[C@H](CCCCNC(=O)COCCOCCNC(=O)CC[C@H](NC(=O)CCCCCCCCCCCCCCCCCCC(=O)O)C(=O)O)NC(=O)[C@H](CCCCN)NC(=O)[C@H](CC(=O)O)NC(=O)[C@H](CC(C)C)NC(=O)[C@](C)(CC(C)C)NC(=O)[C@@H](NC(=O)[C@H](CO)NC(=O)[C@H](Cc1ccc(O)cc1)NC(=O)[C@H](CC(=O)O)NC(=O)[C@H](CO)NC(=O)[C@@H](NC(=O)[C@H](Cc1ccccc1)NC(=O)[C@@H](NC(=O)CNC(=O)[C@H](CCC(N)=O)NC(=O)C(C)(C)NC(=O)[C@@H](N)Cc1ccc(O)cc1)[C@@H](C)O)[C@@H](C)O)[C@@H](C)CC)C(=O)N[C@@H](CCC(=O)O)C(=O)N[C@@H](Cc1ccc(O)cc1)C(=O)N[C@@H](CC(C)C)C(=O)N[C@@H](CC(C)C)C(=O)N[C@@H](CCC(=O)O)C(=O)NCC(=O)NCC(=O)N1CCC[C@H]1C(=O)N[C@@H](CO)C(=O)N[C@@H](CO)C(=O)NCC(=O)N[C@@H](CCC(=O)O)C(=O)N1CCC[C@H]1C(=O)N1CCC[C@H]1C(=O)N1CCC[C@H]1C(=O)N[C@@H](CO)C(=O)NCC(N)=O` [Example 313] (H-Y[Aib]QGTFTSDYSI[αMeL]LDKK([AEEA-γGlu-C20 diacid])AQRAFIEYLLEGGPSSGEPPPSG-NH2), the EC50 amounted to 3290 nM in test [1]; 0.49 nM in test [2] (setting [7]); 0.304 nM in test [3] (setting [7]); 4.11 nM in test [4] (setting [7]); 135 nM in test [5]; 86.4 nM in test [6].

Take `CC[C@H](C)[C@H](NC(=O)[C@H](Cc1ccccc1)NC(=O)[C@H](C)NC(=O)C(C)(C)NC(=O)[C@H](CCC(N)=O)NC(=O)[C@H](C)NC(=O)[C@H](CCCCNC(=O)CC[C@H](NC(=O)CC[C@H](NC(=O)CCCCCCCCCCCCCCCCC(=O)O)C(=O)O)C(=O)O)NC(=O)[C@H](CCCCN)NC(=O)[C@H](CC(=O)O)NC(=O)[C@H](CC(C)C)NC(=O)[C@H](CC(C)C)NC(=O)[C@@H](NC(=O)[C@H](CO)NC(=O)[C@H](Cc1ccc(O)cc1)NC(=O)[C@H](CC(=O)O)NC(=O)[C@H](CO)NC(=O)[C@@H](NC(=O)[C@](C)(Cc1ccccc1F)NC(=O)[C@@H](NC(=O)CNC(=O)[C@H](CCC(N)=O)NC(=O)C(C)(C)NC(=O)[C@@H](N)Cc1ccc(O)cc1)[C@@H](C)O)[C@@H](C)O)[C@@H](C)CC)C(=O)N[C@@H](CCC(=O)O)C(=O)N[C@@H](Cc1ccc(O)cc1)C(=O)N[C@@H](CC(C)C)C(=O)N[C@@H](CCC(=O)O)C(=O)N[C@@H](CCC(=O)O)C(=O)NCC(=O)NCC(=O)N1CCC[C@H]1C(=O)N[C@@H](CO)C(=O)N[C@@H](CO)C(=O)NCC(=O)N[C@@H](C)C(=O)N1CCC[C@H]1C(=O)N1CCC[C@H]1C(=O)N1CCC[C@H]1C(=O)N[C@@H](CO)C(=O)N[C@@H](CCC(=O)O)C(N)=O` [Example 433] (H-Y[Aib]QGT[αMePhe(2-F)]TSDYSILLDKK([γGlu-γGlu-C18 diacid])AQ[Aib]AFIEYLEEGGPSSGAPPPSE-NH2; N-terminus assumed): the 50% effective concentration (EC50) amounted to 532 nM in test [1]; 0.0206 nM in test [2]; 0.273 nM in test [3]; 5.78 nM in test [4]; 43.4 nM in test [5]; 15.3 nM in test [6].

“H-Y[Aib]QGTFTSD[4Pal]SQ[αMeL]LD[Orn]K([AEEA-γGlu-C18 diacid])AQ[αMe4Pal]AFIE[αMeY]LIE[Aib]GPSSGEPPPSGSEE-NH2 [Example 1097]”: the 50% effective concentration (EC50) in test [1] worked out at 752 nM; in test [2] (setting [7]), 0.136 nM; in test [3] (setting [7]) it was 1.59 nM; in test [4] (setting [7]) it was 6.16 nM; in test [5] it was 141 nM; in test [6], 27.3 nM.

On to “H-Y[Aib]QGTFTSD[4Pal]SQ[αMeL]LD[Orn]K([AEEA-γGlu-C18 diacid])AQ[αMe4Pal]AFIE[αMeY]LIEGGPSSGAPPPSGS-NH2 [Example 849]”, for which the EC50 in test [1] was found to be 1160 nM; in test [2] (setting [7]), 0.306 nM; in test [3] (setting [7]), 0.661 nM; in test [4] (setting [7]), 6.66 nM; in test [5], 111 nM; in test [6], 36.6 nM.

With `CC[C@H](C)[C@H](NC(=O)[C@H](Cc1ccccc1)NC(=O)[C@H](CCCN)NC(=O)C(C)(C)NC(=O)[C@H](CCC(N)=O)NC(=O)[C@H](C)NC(=O)[C@H](CCCCNC(=O)[C@H](CCC(=O)O)NC(=O)CC[C@H](NC(=O)CCCCCCCCCCCCCCCCC(=O)O)C(=O)O)NC(=O)[C@H](CCCN)NC(=O)[C@H](CC(=O)O)NC(=O)[C@H](CC(C)C)NC(=O)[C@](C)(CC(C)C)NC(=O)[C@@H](NC(=O)[C@](C)(CO)NC(=O)[C@H](Cc1ccncc1)NC(=O)[C@H](CC(=O)O)NC(=O)[C@H](CO)NC(=O)[C@@H](NC(=O)[C@](C)(Cc1ccccc1F)NC(=O)[C@@H](NC(=O)CNC(=O)[C@H](CCC(N)=O)NC(=O)C(C)(C)NC(=O)[C@@H](N)Cc1ccc(O)cc1)[C@@H](C)O)[C@@H](C)O)[C@@H](C)CC)C(=O)N[C@H](CCC(=O)O)C(=O)N[C@@](C)(Cc1ccc(O)cc1)C(=O)N[C@@H](CC(C)C)C(=O)N[C@@H](CCC(N)=O)C(=O)N[C@@H](CCC(=O)O)C(=O)NCC(=O)NCC(=O)N1CCC[C@H]1C(=O)N[C@@H](CO)C(=O)N[C@@H](CO)C(=O)NCC(=O)N[C@@H](CCC(=O)O)C(=O)N1CCC[C@H]1C(=O)N1CCC[C@H]1C(=O)N1CCC[C@H]1C(=O)N[C@@H](CCC(=O)O)C(=O)NCC(=O)N[C@H](C(=O)N[C@@H](CCC(=O)O)C(=O)N[C@@H](CCC(=O)O)C(N)=O)[C@@H](C)O` [Example 593], the EC50 in test [1] came to 591 nM; in test [2], 0.0484 nM; in test [3], 0.495 nM; in test [4] it was 6.57 nM; in test [5] it was 35.3 nM; in test [6], 2.71 nM.

“H-Y[Aib]QGTFTSD[4Pal]SQ[αMeL]LD[Orn]K([γGlu-γGlu-C18 diacid])AQ[αMe4Pal]QFIEYLLAGGPSSGAPPPSGSEE-NH2 [Example 1006]”: the concentration for a half-maximal effect (EC50) stood at 315 nM in test [1]; 0.109 nM in test [2] (setting [7]); 5.12 nM in test [3] (setting [7]); 4.28 nM in test [4] (setting [7]); 574 nM in test [5]; 11.8 nM in test [6].
